Our source for the IC50 values is ChEMBL document CHEMBL4616626, “Design, synthesis and biological evaluation of HIV-1 protease inhibitors with morpholine derivatives as P2 ligands in combination with cyclopropyl as P1' ligand” (Bioorg Med Chem Lett, 2020).

The experiment has as its target Human immunodeficiency virus type 1 protease (Human immunodeficiency virus 1, UniProt Q72874). Briefly: Inhibition of HIV1 protease by FRET assay.
For the compound `C[C@@H]1CN(CC(=O)N[C@@H](Cc2ccccc2)[C@H](O)CN(C2CC2)S(=O)(=O)c2ccc(N)cc2)CCO1`, the IC50 amounted to 1530 nM.

The compound `COc1ccc(S(=O)(=O)N(C[C@@H](O)[C@H](Cc2ccccc2)NC(=O)CN2CCO[C@H](C)C2)C2CC2)cc1` registered an IC50 of 190 nM.

The compound `O=C(CN[C@@H](Cc1ccccc1)[C@H](O)CN(C1CC1)S(=O)(=O)c1ccc([N+](=O)[O-])cc1)N1CCOCC1` came in with an IC50 of more than 10000 nM.

Compound `Nc1ccc(S(=O)(=O)N(C[C@@H](O)[C@H](Cc2ccccc2)NCC(=O)N2CCOCC2)C2CC2)cc1` came in with an IC50 of 1150 nM.

`O=S(=O)(c1ccc(C(F)(F)F)cc1)N(C[C@@H](O)[C@H](Cc1ccccc1)NCCN1CCOCC1)C1CC1`: it took 1690 nM to reach half-maximal inhibition (IC50).

For `COc1ccc(S(=O)(=O)N(C[C@@H](O)[C@H](Cc2ccccc2)NC(=O)N2CCOCC2)C2CC2)cc1`, the IC50 was found to be 260 nM.

In turn, `O=C(N[C@@H](Cc1ccccc1)[C@H](O)CN(C1CC1)S(=O)(=O)c1ccc([N+](=O)[O-])cc1)OCCN1CCOCC1` came in with an IC50 of 80 nM.

On to `C[C@@H]1CN(CC(=O)N[C@@H](Cc2ccccc2)[C@H](O)CN(C2CC2)S(=O)(=O)c2ccc(C(F)(F)F)cc2)CCO1`, for which the IC50 was 2990 nM.

In turn, `COc1ccc(S(=O)(=O)N(C[C@@H](O)[C@H](Cc2ccccc2)NCC(=O)N2CCOCC2)C2CC2)cc1` gave a 50% inhibitory concentration (IC50) of 180 nM.

Turning to `O=C(CN1CCOCC1)N[C@@H](Cc1ccccc1)[C@H](O)CN(C1CC1)S(=O)(=O)c1ccc([N+](=O)[O-])cc1`, half-maximal inhibition (IC50) was put at 5430 nM.

Turning to `C[C@H]1CN(CC(=O)N[C@@H](Cc2ccccc2)[C@H](O)CN(C2CC2)S(=O)(=O)c2ccc(C(F)(F)F)cc2)CCO1`, inhibition was half-maximal at 400 nM (IC50).

For `Nc1ccc(S(=O)(=O)N(C[C@@H](O)[C@H](Cc2ccccc2)NC(=O)N2CCOCC2)C2CC2)cc1`, half-maximal inhibition (IC50) was put at 640 nM.

As to `C[C@H]1CN(CC(=O)N[C@@H](Cc2ccccc2)[C@H](O)CN(C2CC2)S(=O)(=O)c2ccc(N)cc2)CCO1`, half-maximal inhibition (IC50) was put at 1340 nM.

For the compound `O=C(CN1CCOCC1)N[C@@H](Cc1ccccc1)[C@H](O)CN(C1CC1)S(=O)(=O)c1ccc(C(F)(F)F)cc1`, the midpoint of inhibition, the IC50, lay at 400 nM.

The compound `C[C@H]1CN(CC(=O)N[C@@H](Cc2ccccc2)[C@H](O)CN(C2CC2)S(=O)(=O)c2ccc([N+](=O)[O-])cc2)CCO1` registered an IC50 of 580 nM.

Compound `Nc1ccc(S(=O)(=O)N(C[C@@H](O)[C@H](Cc2ccccc2)NC(=O)OCCN2CCOCC2)C2CC2)cc1` yielded an IC50 of 61 nM.

Compound `COc1ccc(S(=O)(=O)N(C[C@@H](O)[C@H](Cc2ccccc2)NC(=O)CN2CCO[C@@H](C)C2)C2CC2)cc1` had an IC50 of 1270 nM.

On to `O=[N+]([O-])c1ccc(S(=O)(=O)N(C[C@@H](O)[C@H](Cc2ccccc2)NCCN2CCOCC2)C2CC2)cc1`, for which 610 nM corresponded to half-maximal inhibition (IC50).

The compound `O=C(N[C@@H](Cc1ccccc1)[C@H](O)CN(C1CC1)S(=O)(=O)c1ccc(C(F)(F)F)cc1)OCCN1CCOCC1` came in with an IC50 of 120 nM.

Regarding `O=C(CN[C@@H](Cc1ccccc1)[C@H](O)CN(C1CC1)S(=O)(=O)c1ccc(C(F)(F)F)cc1)N1CCOCC1`, the IC50 was determined as 1260 nM.

Consider `COc1ccc(S(=O)(=O)N(C[C@@H](O)[C@H](Cc2ccccc2)NCCN2CCOCC2)C2CC2)cc1`, for which the IC50 came out at 170 nM.

Compound `COc1ccc(S(=O)(=O)N(C[C@@H](O)[C@H](Cc2ccccc2)NC(=O)OCCN2CCOCC2)C2CC2)cc1` showed an IC50 of 53 to 54 nM.

`COc1ccc(S(=O)(=O)N(C[C@@H](O)[C@H](Cc2ccccc2)NC(=O)CN2CCOCC2)C2CC2)cc1` displayed an IC50 of 1040 nM.

`O=C(N[C@@H](Cc1ccccc1)[C@H](O)CN(C1CC1)S(=O)(=O)c1ccc([N+](=O)[O-])cc1)N1CCOCC1` had an IC50 of 790 nM.

Compound `Nc1ccc(S(=O)(=O)N(C[C@@H](O)[C@H](Cc2ccccc2)NC(=O)CN2CCOCC2)C2CC2)cc1` had an IC50 of more than 10000 nM.

`O=C(N[C@@H](Cc1ccccc1)[C@H](O)CN(C1CC1)S(=O)(=O)c1ccc(C(F)(F)F)cc1)N1CCOCC1` yielded an IC50 of 47 nM.

As for `Nc1ccc(S(=O)(=O)N(C[C@@H](O)[C@H](Cc2ccccc2)NCCN2CCOCC2)C2CC2)cc1`, half-maximal inhibition (IC50) required 940 nM.

`C[C@@H]1CN(CC(=O)N[C@@H](Cc2ccccc2)[C@H](O)CN(C2CC2)S(=O)(=O)c2ccc([N+](=O)[O-])cc2)CCO1` came in with an IC50 of 930 nM.
